The numbers were not newly measured in publication PMC10377753, “Pharmacokinetic and pharmacodynamic properties of polymyxin B in Escherichia coli and Klebsiella pneumoniae murine infection models” (Journal of Antimicrobial Chemotherapy, 2023), which cites them from elsewhere.

The test system of this data set is plasma proteins. The note with it: mouse, spiked pooled plasma, ultracentrifugation; cited from earlier work. The text has this:
Protein binding of polymyxin B is known to be high. However, a difference was found between the current study (unbound fraction 20%) compared with previous studies (8.6% for polymyxin B,[8] 8.4% for colistin[5]), which affects the PTA. In the present study, ultrafiltration was used for determining the unbound fraction, whilst ultracentrifugation was used in the other studies. With the ultrafiltration method, correction for the NSB to the ultrafiltration membranes was needed. In addition, differences in mouse plasma used for determination of polymyxin B protein binding may (partly) explain the ...

Turning to colistin, the Unbound fraction is 8.4%.
